One test deals with PCSK9 (Homo sapiens, UniProt Q8NBP7). Nature of the test: BODIPY-LDL uptake assay in HepG2 cells. The conditions noted are these: 5 μg/ml PCSK9, BODIPY-LDL. Format: cell-based. The method in brief: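 Compounds pre-incubated 60 min with 5 μg/ml PCSK9 (0.2% DMSO), then added to HepG2 cells for 16 h; 1 μg/ml BODIPY-LDL added in serum-free medium for 5 h. Fluorescence (Ex 485/Em 520 nm) normalized to protein; PCSK9-only wells = 0%, no-PCSK9 wells = 100% uptake, giving percent increase in LDL uptake.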
Chain of PCSK9 (Q8NBP7 153-692): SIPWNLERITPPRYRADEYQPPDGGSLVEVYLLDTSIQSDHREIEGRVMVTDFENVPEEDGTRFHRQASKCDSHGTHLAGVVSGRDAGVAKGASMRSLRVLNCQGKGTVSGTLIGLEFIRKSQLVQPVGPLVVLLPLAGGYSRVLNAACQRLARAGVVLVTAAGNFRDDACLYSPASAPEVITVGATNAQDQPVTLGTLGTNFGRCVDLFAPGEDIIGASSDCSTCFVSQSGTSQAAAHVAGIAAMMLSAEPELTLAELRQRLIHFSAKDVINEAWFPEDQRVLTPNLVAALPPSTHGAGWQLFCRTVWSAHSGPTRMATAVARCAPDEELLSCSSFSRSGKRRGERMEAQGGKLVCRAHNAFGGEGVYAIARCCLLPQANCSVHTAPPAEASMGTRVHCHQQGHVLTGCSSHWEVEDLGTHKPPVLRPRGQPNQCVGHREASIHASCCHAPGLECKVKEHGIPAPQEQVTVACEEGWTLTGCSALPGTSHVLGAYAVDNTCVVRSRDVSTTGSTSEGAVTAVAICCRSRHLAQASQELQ

The next test relates to High Fat Diet C57 Mice. Nature of the test: LDL-C lowering activity in high fat diet C57 mice. Format: in vivo. The conditions noted are these: Mus musculus, po, 168 h; C57 mice on high fat diet; 30 mg/Kg orally once a day, 7 days treatment, blood on day 7; read-out: % Change Vs Vehicle Control in LDLc. As to the method: LDL-C Lowering Activity—in High Fat Diet C57 Mice
The in-vivo LDL-c lowering for test compound was tested in C57 mice which were kept on high fat diet for 4 weeks and the blood was collected by retro-orbital sinus puncture method under light ether anesthesia on day 0 (pretreatment). Animal are grouped based on LDL-c levels, after that 7 days treatment with vehicle or test compound orally at a dose of 30 mpk dose once a day was given. On completion of treatment on day 7 of the treatment the blood was collected for LDL-c and TC levels measurement.

For the molecule `COC1(c2ccc(C(=O)N3CCC(c4ccc(C(F)(F)F)cc4)CC3)cc2)COC1` [Example 2, (4-(3-methoxyoxetan-3-yl)phenyl)(4-(4-(trifluoromethyl)phenyl)piperidin-1-yl)methanone], the “% increase in LDL Uptake” value is reported as 13% on PCSK9 (1 μM test compound), 86% at PCSK9 (10 μM test compound) and 172% on PCSK9 (30 μM test compound). Besides, the change in vivo at 30 mg/kg in the test on High Fat Diet C57 Mice is -45 ± 5%.
On to `O=C(c1ccc(C2(O)COC2)cc1)N1CCN(c2ccc(C(F)(F)F)cc2)CC1` [Example 6, (4-(3-hydroxyoxetan-3-yl)phenyl)(4-(4-(trifluoromethyl)phenyl)piperazin-1-yl)methanone], for which the “% increase in LDL Uptake” value is 0% on PCSK9 (1 μM test compound), 106% at PCSK9 (10 μM test compound) and 179% at PCSK9 (30 μM test compound). In addition, the change in vivo at 30 mg/kg with High Fat Diet C57 Mice is 0.6 ± 9%.
As to `OC1(c2ccc(N3CCC(c4ccc(C(F)(F)F)cc4)CC3)cc2)COC1` [Example 8, 3-(4-(4-(4-(trifluoromethyl)phenyl)piperidin-1-yl)phenyl)oxetan-3-ol], the “% increase in LDL Uptake” value is reported as 0% on PCSK9 (1 μM test compound), 73% on PCSK9 (10 μM test compound) and 114% on PCSK9 (30 μM test compound). Moreover, the change in vivo at 30 mg/kg in the test on High Fat Diet C57 Mice was -30 ± 8%.
For the molecule `O=C(c1ccc(C2(O)COC2)cc1)N1CC2CC(c3ccc(C(F)(F)F)cc3)CC2C1` (centres unmarked) [Example 10, (4-(3-hydroxyoxetan-3-yl)phenyl)(5-(4-(trifluoromethyl)phenyl)hexahydrocyclopenta[c]pyrrol-2(1H)-yl)methanone], the “% increase in LDL Uptake” value on PCSK9 (1 μM test compound) amounted to 0%; on PCSK9 (10 μM test compound) it was 273%; on PCSK9 (30 μM test compound), 347%. Moreover, the change in vivo at 30 mg/kg with High Fat Diet C57 Mice is -15 ± 8%.
The corresponding values for `O=C(c1ccc(C2(O)COC2)cc1)N1CC2CN(c3ccc(C(F)(F)F)cc3)CC2C1` (centres unmarked) [Example 11, (4-(3-hydroxyoxetan-3-yl)phenyl)(5-(4-(trifluoromethyl)phenyl)hexahydropyrrolo[3,4-c]pyrrol-2 (1H)-yl)methanone] are 6%, 59%, 116% and -48 ± 5%.
The like results for `O=C(c1ccc(C2(O)COC2)cc1)N1CCCC(c2ccc(C(F)(F)F)cc2)C1` (centres unmarked) [Example 34, (4-(3-hydroxyoxetan-3-yl)phenyl)(3-(4-(trifluoromethyl)phenyl)piperidin-1-yl)methanone] were, in that order, 27%, 86%, 252% and -31 ± 8%.
Turning to `COC1(c2ccc(C(=O)N3CCCC(c4ccc(C(F)(F)F)cc4)C3)cc2)COC1` (centres unmarked) [Example 39, (4-(3-methoxyoxetan-3-yl)phenyl)(3-(4-(trifluoromethyl)phenyl)piperidin-1-yl)methanone], the “% increase in LDL Uptake” value at PCSK9 (1 μM test compound) turned out to be 26%; at PCSK9 (10 μM test compound), 149%; at PCSK9 (30 μM test compound) it was 147%. Further, in the test with High Fat Diet C57 Mice, the change in vivo at 30 mg/kg was -29 ± 5%.
The corresponding values for `CCOC1(c2ccc(C(=O)N3CCC(c4ccc(C(F)(F)F)cc4)CC3)cc2)COC1` [Example 43, (4-(3-ethoxyoxetan-3-yl)phenyl)(4-(4-(trifluoromethyl)phenyl)piperidin-1-yl)methanone] are 0%, 12%, 5% and -27 ± 10%.
The corresponding values for `O=C(c1cccc(C2(O)COC2)c1)N1CCC(c2ccc(C(F)(F)F)cc2)CC1` [Example 47, (3-(3-hydroxyoxetan-3-yl)phenyl)(4-(4-(trifluoromethyl)phenyl)piperidin-1-yl)methanone] are 17%, 189%, 383% and -5 ± 7%.
The like results for `COC1(c2ccc(C(=O)N3CCN(c4ccc(C(F)(F)F)cc4)CC3)cc2)COC1` [Example 53, (4-(3-methoxyoxetan-3-yl)phenyl)(4-(4-(trifluoromethyl)phenyl)piperazin-1-yl)methanone] were, in that order, 4%, 80%, 129% and -15 ± 6%.
Take `COC1(c2cccc(C(=O)N3CC4CN(c5ccc(C(F)(F)F)cc5)CC4C3)c2)COC1` (centres unmarked) [Example 56, (3-(3-methoxyoxetan-3-yl)phenyl)(5-(4-(trifluoromethyl)phenyl)hexahydropyrrolo[3,4-c]pyrrol-2(1H)-yl)methanone]: the “% increase in LDL Uptake” value is 55% at PCSK9 (1 μM test compound), 344% on PCSK9 (10 μM test compound) and 257% at PCSK9 (30 μM test compound). The change in vivo at 30 mg/kg with High Fat Diet C57 Mice was -5 ± 8%.
The corresponding values for `COC1(c2ccc(C(=O)N3CC4CN(c5ccc(C(F)(F)F)cc5)CC4C3)cc2)COC1` (centres unmarked) [Example 57, (4-(3-methoxyoxetan-3-yl)phenyl)(5-(4-(trifluoromethyl)phenyl)hexahydropyrrolo[3,4-c]pyrrol-2(1H)-yl)methanone] are 6%, 32%, 53% and -43 ± 9%.
The corresponding values for `CCOC1(c2ccc(C(=O)N3CC4CN(c5ccc(C(F)(F)F)cc5)CC4C3)cc2)COC1` (centres unmarked) [Example 58, (4-(3-ethoxyoxetan-3-yl)phenyl)(5-(4-(trifluoromethyl)phenyl)hexahydropyrrolo[3,4-c]pyrrol-2 (1H)-yl)methanone] are 25%, 21%, 43% and -44 ± 3%.
Take `O=C(c1cccc(C2(O)COC2)c1)N1CCC(c2ccc(C(F)F)cc2)CC1` [Example 66, (4-(4-(difluoromethyl)phenyl)piperidin-1-yl)(3-(3-hydroxyoxetan-3-yl)phenyl)methanone]: the “% increase in LDL Uptake” value at PCSK9 (1 μM test compound) amounted to 0%; on PCSK9 (10 μM test compound), 24%; on PCSK9 (30 μM test compound), 159%. Besides, in the test on High Fat Diet C57 Mice, the change in vivo at 30 mg/kg is -24 ± 7.1%.
For the molecule `[2H]C([2H])([2H])OC1(c2ccc(C(=O)N3CCC(c4ccc(C(F)(F)F)cc4)CC3)cc2)COC1` [Example 76, (4-(3-(methoxy-d3)oxetan-3-yl)phenyl)(4-(4-(trifluoromethyl)phenyl)piperidin-1-yl)methanone], the “% increase in LDL Uptake” value on PCSK9 (1 μM test compound) came out at 10%; on PCSK9 (10 μM test compound), 98%; at PCSK9 (30 μM test compound) it was 108%. In addition, the change in vivo at 30 mg/kg in the test on High Fat Diet C57 Mice was -28 ± 7%.
The corresponding values for `O=C(c1ccc(C2(O)COC2)cc1)N1CCC(O)(c2ccc(C(F)(F)F)cc2)CC1` [Example 86, (4-hydroxy-4-(4-(trifluoromethyl)phenyl)piperidin-1-yl)(4-(3-hydroxyoxetan-3-yl)phenyl)methanone] are 2%, 33%, 55% and -28 ± 4%.
The corresponding values for `O=C(c1ccc(C2(O)COC2)cc1)N1CC=C(c2ccc(C(F)(F)F)cc2)CC1` [Example 87, (4-(3-hydroxyoxetan-3-yl)phenyl)(4-(4-(trifluoromethyl)phenyl)-5,6-dihydropyridin-1(2H)-yl)methanone] are 77%, 115%, 94% and -36 ± 5%.
The like results for `COC1(c2ccc(C(=O)N3Cc4cn(-c5ccc(C(F)(F)F)cc5)nc4C3)cc2)COC1` [Example 90, (4-(3-methoxyoxetan-3-yl)phenyl)(2-(4-(trifluoromethyl)phenyl)-2,6-dihydropyrrolo[3,4-c]pyrazol-5(4H)-yl)methanone] were, in that order, 3%, 39%, 74% and -5.5 ± 4.5%.
On to `O=C(c1ccc(C2(O)COC2)cc1)N1CC2=C(C1)CN(c1ccc(C(F)(F)F)cc1)C2` [Example 95, (4-(3-hydroxyoxetan-3-yl)phenyl)(5-(4-(trifluoromethyl)phenyl)-3,4,5,6-tetrahydropyrrolo[3,4-c]pyrrol-2(1H)-yl)methanone], for which the “% increase in LDL Uptake” value at PCSK9 (1 μM test compound) worked out at 19%; on PCSK9 (10 μM test compound), 127%; on PCSK9 (30 μM test compound), 226%. For the same molecule, in the test on High Fat Diet C57 Mice, the change in vivo at 30 mg/kg was -16 ± 9%.
The corresponding values for `O=C(c1ccc(C2(O)COC2)cc1)N1CC2CC(O)(c3ccc(C(F)(F)F)cc3)CC2C1` (centres unmarked) [Example 105, (5-hydroxy-5-(4-(trifluoromethyl)phenyl)hexahydrocyclopenta[c]pyrrol-2(1H)-yl)(4-(3-hydroxyoxetan-3-yl)phenyl)methanone] are 92%, 130%, 101% and -7 ± 7%.

These data come from patent US20230089247A1, “NOVEL COMPOUNDS SUITABLE FOR THE TREATMENT OF DYSLIPIDEMIA” (ZYDUS LIFESCIENCES LIMITED, priority 2019, published 2023).
